Assay results: patent EP4640213A1, “ORAL PHARMACEUTICAL PREPARATION COMPRISING SODIUM-GLUCOSE COTRANSPORTER-2 INHIBITOR AND ANGIOTENSIN II RECEPTOR BLOCKER” (THPharm Corp., priority 2022, dated 2024)

What was measured:
[1] = Drug-drug compatibility test under accelerated stability conditions; type: physicochemical
Method: Specifically, after storing a mixture of ARB and SGLT-2 inhibitor for 4 weeks under accelerated stability test conditions (40 ± 2°C/75 ± 5% relative humidity), changes in the contents of each ingredient and flexible substance and changes in properties (color, agglomeration, etc.) were analyzed. Olmesartan, Valsartan, and Telmisartan were used as ARBs, and Empagliflozin, Dapagliflozin (Dapagliflozin propanediol monohydrate), and Canagliflozin were used as SGLT-2 inhibitors. [Table 4] […] To observe the properties and viscosity of the main ingredients, 10 g of the mixtures of ARBs and SGLT-2 inhibitors stored for 1, 2, 3, and 4 weeks were taken and exposed to 100 ml of purified water at room temperature for 10 minutes, and then the properties and viscosity were identified.

[2] = tested on: angiotensin converting enzyme (ACE); assay: ACE mRNA expression (RT-PCR) in LPS inflammation-induced H9c2 cells; type: cell-based, rat; conditions: for mRNA expression of ACE: alone administration, FIGS. 5 and 6
Method: Specifically, H9c2 cells as a […] cardiac cell line were obtained and used from the Korea Cell Line Bank (KCLB 40071, Korea) and incubated and prepared in a DMEM medium supplemented with 10% FBS and 1% antibiotic-antimycotic (10 units/ml penicillin, 100 µg/ml streptomycin, 0.25 µg/ml amphotericin) under 37°C and 5% CO2 conditions.
To confirm the effect on ACE activity, the prepared H9c2 cells were treated with 2.5 µg/ml of Lipopolysaccharide (LPS), which was 2.5 times more than the amount used in conventional inflammation-related experiments, to induce inflammation, thereby setting the optimized conditions for confirming ACE expression. LPS inflammation-induced H9c2 cells were treated with 10, 25, and 50 µM Telmisartan or olmesartan, respectively, and the H9c2 cells were harvested for ELISA assay. The harvested cells were treated with 1 ml of an RIPA buffer and stirred at 4°C for 30 minutes to extract proteins. Thereafter, the proteins were centrifuged at 4°C and 10,000 rpm for 20 minutes, and the supernatant was transferred to a sterilized tube and stored at - 80°C for use in the ELISA assay.
Specifically, LPS inflammation-induced H9c2 cells in Experimental Example 1-2 were treated with 10 or 25 µM Telmisartan and 10 or 50 µM olmesartan, and then treated with 200 µl of chloroform together with 1 ml of TRIZol (Sigma, USA), gently mixed, and separated for 10 minutes, and then centrifuged at 4°C and 10,000 rpm for 10 minutes. After centrifugation, only the supernatant from the tube was taken and transferred to a new sterile tube, and the supernatant was treated with 500 µl of isopropanol to precipitate RNA. The precipitated RNA was centrifuged at 4°C, 10,000 rpm for 10 minutes, and then the supernatant except for the pellets in the tube was fully removed, and the RNA pellets were treated with 500 µl of 75% ethyl alcohol and thoroughly washed. The washed pellets were centrifuged at 4°C, 10,000 rpm for 5 minutes, and then the supernatant except the pellets was fully removed. The tube containing the pellets from which the supernatant had been cleanly removed was treated with diethyl pyrocarbonate (DEPC)-water and stored at - 80°C for use in an RT-PCR experiment.
RT-PCR was performed by synthesizing cDNA from mRNA using an RT-PCR kit containing DNA polymerase, buffer, dNTP, and tracking dye, and then using ACE primers in Table 1 under the conditions in Table 2 for 35 cycles. The PCR products were electrophoresed on a […] agarose gel, identified using a UV transilluminator, and expressed as normalized to GAPDH for quantitative comparison.
In order to confirm the effect of each combination or single substance on the mRNA expression of ACE, the experimental samples in Table 3 were treated to H9c2 cells induced with LPS inflammation in Experimental Example 1-2, respectively, and then the mRNA expression of ACE was evaluated in the same manner as in Experimental Example 1-3.

[3] = 4-week repeated oral administration toxicity; type: in vivo, Sprague-Dawley rats; conditions: oral daily for 4 weeks
Method: During the test, general symptom observation, blood test, and body weight measurement were performed, and after the observation period ended, the rats were euthanized and autopsied.

[4] = Single oral administration pharmacokinetic test; conditions: beagle dogs
Method: The control and test drugs were administered orally once by a single tablet, and were crossed over (4 × 4 cross over) four times at one-week intervals. Fasting was performed from 5 to 6 pm the day before administration. The control and test drugs were administered into the tongue root, and then administered with approximately 15 ml of water, and feed was provided approximately 4 hours after administration. Blood was collected at 0 (blank), 0.25, 0.5, 0.75, 1, 1.5, 2, 3, 4, 5, 6, 8, 12, and 24 hours (14 times) after administration of the control and test drugs, and left by a 7-day drug-free period.

[5] = tested on: angiotensin converting enzyme (ACE); assay: ACE ELISA assay (ACE protein expression) in LPS inflammation-induced H9c2 cells; type: cell-based, rat; conditions: FIG. 3
Method: Specifically, H9c2 cells as a human cardiac cell line were obtained and used from the Korea Cell Line Bank (KCLB 40071, Korea) and incubated and prepared in a DMEM medium supplemented with 10% FBS and 1% antibiotic-antimycotic (10 units/ml penicillin, 100 µg/ml streptomycin, 0.25 µg/ml amphotericin) under 37°C and 5% CO2 conditions.
To perform the ELISA assay, 10,000 pg/ml, 5,000 pg/ml, 2,500 pg/ml, 1,250 pg/ml, 625 pg/ml, 312 pg/ml, and 156 pg/ml of Human ACE standard solutions and a standard dilution buffer were added by 0.1 ml to each well of an antibody-coated 96-well plate. […] Thereafter, each well was added with 90 µl of the prepared TMB solution, incubated for 20 to 25 minutes in a dark room at 37°C, and then treated with each 0.1 ml of the prepared TMB stop solution to stop an ACE ELISA reaction, and the OD absorbance at 450 nm was read in a microplate reader within 30 minutes, and the relative OD450 was derived using the following Equation. […]

[6] = tested on: A549 cells; assay: Cell survival rate (MTT) in A549 cells; type: cell-based; conditions: up to a concentration of 25 µM, 24 and 48 hours, FIGS. 1A, 1B
Method: (§1) To screen angiotensin II receptor blockers for use in combinations of angiotensin II receptor blockers (ARBs) and sodium-glucose cotransporter-2 (SGLT-2) inhibitors for the treatment of heart failure, cell survival rates were evaluated.
(§2) Specifically, A549 cells were obtained from the Korean Cell Line Bank (KCLB) and subcultured using a RPMI-1640 medium supplemented with 10% fetal bovine serum (FBS) and 1% Penicillin, and MDCK cells were obtained from ATCC and subcultured using a DMEM medium supplemented with 10% FBS. 200 µl each of the A549 cells and MDCK cells incubated in an incubator under 37°C and 5% CO2 conditions were dispensed at 2 × 10^4 cells/well in a 96-well plate, and then a control group was treated with 100 µl of the medium, and experimental groups were treated with 1.25, 25, 50, and 100 µM of Telmisartan or olmesartan, respectively. After 24 and 48 hours, all of the wells were treated with 50 µl each of a 2 mg/ml MTT reagent and incubated in an incubator for 3 hours, and then each well was added with […] of DMSO, wrapped in foil, stirred for 30 minutes at room temperature, and the absorbance was measured at 570 nm to obtain the cell survival rate.

[7] = tested on: MDCK cells; assay: Cell survival rate (MTT) in MDCK cells; type: cell-based; conditions: up to a concentration of 25 µM, 24 and 48 hours, FIGS. 2A, 2B
Method: as §1, §2

[8] = ARB ingredient (first value of cell), Acceleration 1 week, 40 ± 2°C/75 ± 5% relative humidity
[9] = ARB ingredient (first value of cell), Acceleration 2 week
[10] = ARB ingredient (first value of cell), Acceleration 3 week
[11] = ARB ingredient (first value of cell), Acceleration 4 week
[12] = ARB ingredient (first value of cell), Initial
[13] = color, agglomeration, etc., Initial
[14] = SGLT-2 inhibitor ingredient (second value of cell), Acceleration 1 week
[15] = SGLT-2 inhibitor ingredient (second value of cell), Acceleration 2 week
[16] = SGLT-2 inhibitor ingredient (second value of cell), Acceleration 3 week
[17] = SGLT-2 inhibitor ingredient (second value of cell), Acceleration 4 week
[18] = SGLT-2 inhibitor ingredient (second value of cell), Initial
[19] = 15 µM high-concentration groups
[20] = low-concentration groups of 2.5 µM to 10 µM

| SMILES | flexible substance ([1]; Acceleration 1 week) | property ([1]; Acceleration 1 week) | flexible substance ([1]; Acceleration 2 week) | property ([1]; Acceleration 2 week) | flexible substance ([1]; Acceleration 3 week) | property ([1]; Acceleration 3 week) | flexible substance ([1]; Acceleration 4 week) | property ([1]; Acceleration 4 week) | flexible substance ([1]; Initial) | property [1, 13] | mRNA expression of ACE [2, 20] | further results |
| --- | --- | --- | --- | --- | --- | --- | --- | --- | --- | --- | --- | --- |
| CCCc1nc2c(C)cc(-c3nc4ccccc4n3C)cc2n1Cc1ccc(-c2ccccc2C(=O)O)cc1 [Com. Ex. 16, Telmisartan] | 0.1 or less | suitable | 0.1 or less | suitable | 0.1 or less | suitable | 0.1 or less | suitable | 0.1 or less | suitable | – | content [1, 8]: 100.1%; content [1, 9]: 100%; content [1, 10]: 100%; content [1, 11]: 100%; content [1, 12]: 100.1% |
| OC[C@H]1O[C@@H](c2ccc(Cl)c(Cc3ccc(O[C@H]4CCOC4)cc3)c2)[C@H](O)[C@@H](O)[C@@H]1O [Com. Ex. 17, Empagliflozin] | 1.0 or less | suitable | 1.0 or more | suitable | 5.0 or more | unsuitable | 5.0 or more | unsuitable | 0.1 or less | suitable | – | content [1, 14]: 97.3%; content [1, 15]: 95.1%; content [1, 16]: 85.4%; content [1, 17]: 80.2%; content [1, 18]: 99.9% |
| CCCCC(=O)N(Cc1ccc(-c2ccccc2-c2nnn[nH]2)cc1)[C@H](C(=O)O)C(C)C [Com. Ex. 20, Valsartan] | 0.1 or more | suitable | 0.1 or more | suitable | 0.1 or more | suitable | 0.1 or more | suitable | 0.1 or less | suitable | – | content [1, 8]: 99.4%; content [1, 9]: 99.2%; content [1, 10]: 99%; content [1, 11]: 98.7%; content [1, 12]: 99.7% |
| Cc1ccc([C@@H]2O[C@H](CO)[C@@H](O)[C@H](O)[C@H]2O)cc1Cc1ccc(-c2ccc(F)cc2)s1 [Com. Ex. 21, Canagliflozin] | 1.0 or less | unsuitable | 5.0 or more | unsuitable | 5.0 or more | unsuitable | 5.0 or more | unsuitable | 0.1 or less | suitable | – | content [1, 14]: 95.2%; content [1, 15]: 89.2%; content [1, 16]: 85.2%; content [1, 17]: 80.1%; content [1, 18]: 99.5% |
| OC[C@H]1O[C@@H](c2ccc(Cl)c(Cc3ccc(O[C@H]4CCOC4)cc3)c2)[C@H](O)[C@@H](O)[C@@H]1O [Comparative Example 8, Empagliflozin] | – | – | – | – | – | – | – | – | – | – | – | mRNA expression of ACE [2, 19]: decrease below the normal level |
| CCCc1nc2c(C)cc(-c3nc4ccccc4n3C)cc2n1Cc1ccc(-c2ccccc2C(=O)O)cc1 [Comparative Example 14, Telmisartan] | – | – | – | – | – | – | – | – | – | – | – | mRNA expression of ACE [2, 19]: decrease below the normal level |
| CCOc1ccc(Cc2cc([C@@H]3O[C@H](CO)[C@@H](O)[C@H](O)[C@H]3O)ccc2Cl)cc1 [Dapagliflozin, (1S)-1,5-anhydro-1-C-{4-chloro-3-[(4-ethoxyphenyl)methyl]phenyl}-D-glucitol] | – | – | – | – | – | – | – | – | – | – | did not decrease to a normal level | GLU ([3]; blood test): decreased; Cmax of Dapagliflozin (T/R ratio) (in the presence of Telmisartan, 90% confidence interval 0.93 to 1.12): approximately 1.02 times; AUC of Dapagliflozin (T/R ratio) (in the presence of Telmisartan, 90% confidence interval 0.97 to 1.03): approximately 1.00 times; difference in AUCall between groups in the single administration group and the combined administration group [4]: 1.0 times |
| OC[C@H]1O[C@@H](c2ccc(Cl)c(Cc3ccc(O[C@H]4CCOC4)cc3)c2)[C@H](O)[C@@H](O)[C@@H]1O [Empagliflozin, (1S)-1,5-anhydro-1-C-[4-chloro-3-[[4-[[(3S)-tetrahydro-3-furanyl]oxy]phenyl]methyl]phenyl]-D-glucitol] | – | – | – | – | – | – | – | – | – | – | did not decrease to a normal level | – |
| CCCc1nc2c(C)cc(-c3nc4ccccc4n3C)cc2n1Cc1ccc(-c2ccccc2C(=O)O)cc1 [Telmisartan, 4'-[(1,4'-dimethyl-2'-propyl[2,6'-bi-1H-benzimidazol]-1'-yl)methyl][1,1'-biphenyl]-2-carboxylic acid] | – | – | – | – | – | – | – | – | – | – | did not decrease to a normal level | ACE expression inhibition effect ([5]; 25 µM treatment group): the best; ACE expression inhibition effect ([5]; all treatment concentrations (10, 25, 50 µM)): superior to that of olmesartan; mRNA expression ([2]; 25 µM treatment group, FIG. 4): mostly inhibited; mRNA expression inhibition effect ([2]; all treatment concentrations, FIG. 4): superior to that of olmesartan; body weight measurement [3]: a tendency for inhibiting weight gain; Cmax of Telmisartan (T/R ratio) (in the presence of Dapagliflozin, 80 mg / 10 mg, 90% confidence interval 0.99 to 1.43): approximately 1.19 times; cell survival rate [6]: no effect on cell survival rate; difference in AUCall between groups in the single administration group and the combined administration group [4]: 1.0 times; cell survival rate [7]: no effect on cell survival rate |
| CCCc1nc(C(C)(C)O)c(C(=O)O)n1Cc1ccc(-c2ccccc2-c2nnn[nH]2)cc1 [olmesartan] | – | – | – | – | – | – | – | – | – | – | – | cell survival rate [6]: no effect on cell survival rate; cell survival rate [7]: no effect on cell survival rate |
